Values after ≈ are worked out from the molar mass of the structure shown.
Key:
WEHI-164 = experiment: Cytotoxicity against mouse WEHI164 cells by rapid colorimetric assay; format: functional, cell-based
HEK293 = experiment: Cytotoxicity against HEK293 cells by rapid colorimetric assay; format: cell-based; conditions: Homo sapiens
J774.A1 = experiment: Cytotoxicity against mouse J774A1 cells by rapid colorimetric assay; format: cell-based

| SMILES | IC50 (WEHI-164) [µg/mL] | IC50 (HEK293) [µg/mL] | IC50 (J774.A1) [µg/mL] |
| --- | --- | --- | --- |
| C1=C\Cc2ccc[n+](c2)CCCCCCCC/C=C\Cc2ccc[n+](c2)CCCCCCCC/1 | > 20 | > 20 | > 20 |
| C1=C\Cc2ccc[n+](c2)CCCCCCCC/C=C\Cc2ccc[n+](c2)CCCCCCCC/C=C\Cc2ccc[n+](c2)CCCCCCCC/1 | > 20 | > 20 | > 20 |
| Sc1ncnc2nc[nH]c12 [MERCAPTOPURINE ANHYDROUS] | 0.0025 (≈ 0.0164 µM) | 0.00071 (≈ 0.00467 µM) | 0.0051 (≈ 0.0335 µM) |

— ChEMBL document CHEMBL1151990, “3-Alkylpyridinium alkaloids from the Pacific sponge Haliclona sp” (J Nat Prod, 2009)
